# Laboratory results from patent publication EP0077430B1, “A pharmaceutical composition for enhancing keratinogenesis and reducing facial and scalp seborrhea” (Mavi S.r.l., priority 1981, dated 1983).
# How the values were obtained:
# Type in all cases: in vivo, Whistar rats
# [1] = tested on: rats kept on a biotin poor diet; test: Experimental test 1: skin total lipids and hair sulphur content of rats on a biotin free diet with additives
# From the text: According to the invention in fact the intimate distribution of the cystine within the mass of "soft" gelatin ensures a particularly favorable oral absorption, so that it is possible to reduce the doses of active substances with respect to the doses established by the prior art for the indicated pharmaceutical use. […] It is in fact known that the alimentary insufficiency of biotin induces, in the rat, the formation of a seborrhoic clinical condition, characterized by the increase of the sebaceous secretion and by the fall of hair.
# In order to have a direct comparison, said rats have been successively treated, in different lots, -with diets to which was added respectively gelatin, cystine, gelatin-cystine in mechanical mixture and gelatin-cystine in soft spherules.
# 60 Whistar rats were employed of both sexes (30 males and 30 females) of the average weight of 150 g±9. Following the Kalopissis et al methodology (U.S. patent No. 3629452) 50 rats were kept on a biotin free diet for about 40 days until an evident seborrhoic clinical condition had developed, while the remaining 10 served as controls. After obtaining the desired clinical condition with the development of seborrhoea and loss of hair in various zones, the 50 rats were subdivided into five groups of 10 rats each and treated as follows: • 1st group: biotin free diet added with cystine; • 2nd group: biotin free diet added with gelatin; • 3rd group: biotin free diet added with cystine and gelatin in mechanical mixture; • 4th group: biotin free diet added with the mixture of gelatin/cystine melted in soft spherules; • 5th group: biotin free diet; • 6th group: control.
# The diets were administered weekly in the cages of the rats in accurately weighed quantity so that the rats, kept in single cages, would ingest together with the feed, respectively: • 1st group: 84 mg per kg a week of cystine; • 2nd group: 203 mg per kg a week of gelatin from collagen; • 3rd group: 84 mg per kg a week of cystine and 203 mg per kg a week of gelatin; • 4th group: 280 mg per kg a week of the melted mixture of gelatin/cystine comprising 79.8 mg of cystine and 200.2 mg of gelatin.
# After three weeks of treatment and after taking about 200 mg of hairs per rat, all the animals, included the controls, were sacrificed in a chloroform saturated environment in order to control their skin total lipids and in order to carry out possible histological and bioptic examinations. […]
# The content of the total lipids was determined gravimetrically by the difference in weight of the sample before and after the extraction in a Soxhlet with acetone for 10 days and further drying out in vacuum over P205 and paraffin for 24 hours.
# [2] = tested on: normal rats, not subjected previously to a biotin poor diet; test: Experimental test 2, lot II: composition of hair keratin of normal rats fed an enriched diet; details: 150 days of treatment
# From the text: (§1) The elective stimulating action has also been verified on rats, performed especially by the gelatin cystine, in the keratinization processes of the hairy structures, verifying the average content of sulphur and cystine of the hair of rats kept on a normal diet and respectively of rats kept on a biotin poor diet, fed respectively only gelatin, only cystine and the association of gelatin-cystine both in the form of mechanical mixture in hard capsules, and in the form melted in soft spherules.
# (§2) 110 Whistar rats of both sexes were employed (55 males plus 55 females) of the average weight of 150 g±9, divided in two lots of respectively 60 (lot I) and 50 (lot II) rats each. Following the Kalopissis and Manoussos methodology already quoted in test 1, 50 rats of lot I were kept on a biotin poor diet for about 40 days until the appearance of an evident seborrhoic clinical condition was induced, while the remaining 10 served as controls. After having obtained the desired clinical condition with the appearance of seborrhoea and loss of hair in several zones, the 60 rats were divided into six groups of 10 rats each and treated as follows:
# The 50 rats of the second lot (normal rats, not subjected previously to a biotin poor diet), divided into five groups of 10 rats each, have been fed respectively:
# The quantity of the feed placed in the cages was calculated in such a way that the rats would ingest the same quantity per kg of cystin, FU gelatin or gelatin-cystine already described above.
# After 150 days of treatment the rats, under ether anaesthesia, were partially depilated with a razor.
# (§3) A part of the hair (about 100 mg) of all the animals of the two groups, thoroughly washed with alcohol and ethyl ether and dried, are used for the determination of the total sulphur carried out by means of titration, according to the previously mentioned McDonald methodology.
# (§4) After having hydrolyzed the hair of all the animals (about 800 mg) previously washed as already described, the quantity of cystine was determined using an autoanalyzer.
# (§5) The extraction of the total keratins of the hairs was carried out using the urea-thioglycolate method as described in Gillespie J. M., Reis P. J. and Schinckel P. G. (1964) Aust. J. Biol. Sci. 17, 548.
# (§6) After determining from one portion the total keratin (total proteins), the keratin fraction of high sulphur content is separated through alkylation with iodo acetate, dialysis and precipitation of the protein of low sulphur content with zinc acetate at pH 6. The total sulphur was determined on the protein fraction "rich in sulphur" according to the already mentioned McDonald methodology.
# biotin poor rats = test: Experimental test 2, lot I: composition of hair keratin (sulphur, cystine, proteins) of biotin poor rats
# From the text: as §1, §2
# The diets prepared specifically by a specialized firm were administered weekly in the cages of the rats, in accurately weighed quantity so that the rats, kept in single cages, would ingest together with the feed, respectively:
# After six weeks of treatment and after having taken about 1 gof hair per rat, all the animals included the controls were sacrificed in a chloroform saturated atmosphere.
# as §3, §4, §5, §6
# [3] = in the biotin-poor rats, oral, P<0.05
# [4] = hair of biotin poor rats, six weeks of treatment
smiles,measurement,setting,value
N[C@@H](CSSC[C@H](N)C(=O)O)C(=O)O [Levo-cystine],Total lipides %,"[1]; dorsal skin, gravimetric after acetone extraction, biotin poor diet plus additive, three weeks of treatment, °=P<0.05 versus group VI (controls)",38.1±2.987° %
same,increase of the total sulphur of the hair,[1]; [3],about 7%
same,reduction of the total lipids of the skin,[1]; [3],about 15%
same,"Sulphur content (×g hair, %)","[1]; total sulphur by titration, percentage of dried weight of hair, biotin poor diet plus additive, three weeks of treatment",2.48±0.066° %
same,"""Sulphur rich"" keratin %",[2],25.9±0.5° %
same,Cystine content %,[2],13.8±0.6° %
same,"Sulphur contained in the ""sulphur rich keratin"" %",[2],5.1±0.2° %
same,Sulphur content %,[2],3.6±0.1° %
same,"""Sulphur rich"" proteic fraction %",biotin poor rats; [4],20±1%
same,"Sulphur contained in the ""sulphur rich"" proteic fraction, %",biotin poor rats; [4],3.9±0.05%
same,Sulphur content %,biotin poor rats; [4],2.48±0.07° %
same,Cystine content %,"biotin poor rats; hair of biotin poor rats, six weeks of treatment, g/100 g of hairs, autoanalyzer after hydrolysis",9.3±0.6%
same,Total proteins %,"biotin poor rats; total keratins of hair, urea-thioglycolate extraction, biotin poor rats, six weeks",90±1%
